These are literature values, as cited in patent publication US20090209641A1, “PHARMACEUTICAL COMPOSITION FOR ADMINISTRATION BY INJECTION” (priority 2006, published 2009).

Structures are written as SMILES.

Regarding `N.N.O=C([O-])C1(C(=O)[O-])CCC1.[Pt+2]` [carboplatinum], the solubility in water was 17 mg/mL.
